Measured values published in ChEMBL document CHEMBL5537119 (Eur J Med Chem, 2024).
pIC50: −log10 of the molar value.

How the values were obtained:
Histone deacetylase 5 = Histone deacetylase 5 (Homo sapiens, UniProt Q9UQL6); experiment: Inhibition of HDAC5 (unknown origin)
[1] = target: T1, Protein deacetylase HDAC6 (Homo sapiens, UniProt Q9UBN7); experiment: Inhibition of human recombinant HDAC6 using Boc-Lys(Ac)-AMC as substrate preincubated for 5 mins followed by substrate addition and measured after 90 mins by fluorescence based microplate reader analysis
T1 sequence (Q9UBN7 whole entry): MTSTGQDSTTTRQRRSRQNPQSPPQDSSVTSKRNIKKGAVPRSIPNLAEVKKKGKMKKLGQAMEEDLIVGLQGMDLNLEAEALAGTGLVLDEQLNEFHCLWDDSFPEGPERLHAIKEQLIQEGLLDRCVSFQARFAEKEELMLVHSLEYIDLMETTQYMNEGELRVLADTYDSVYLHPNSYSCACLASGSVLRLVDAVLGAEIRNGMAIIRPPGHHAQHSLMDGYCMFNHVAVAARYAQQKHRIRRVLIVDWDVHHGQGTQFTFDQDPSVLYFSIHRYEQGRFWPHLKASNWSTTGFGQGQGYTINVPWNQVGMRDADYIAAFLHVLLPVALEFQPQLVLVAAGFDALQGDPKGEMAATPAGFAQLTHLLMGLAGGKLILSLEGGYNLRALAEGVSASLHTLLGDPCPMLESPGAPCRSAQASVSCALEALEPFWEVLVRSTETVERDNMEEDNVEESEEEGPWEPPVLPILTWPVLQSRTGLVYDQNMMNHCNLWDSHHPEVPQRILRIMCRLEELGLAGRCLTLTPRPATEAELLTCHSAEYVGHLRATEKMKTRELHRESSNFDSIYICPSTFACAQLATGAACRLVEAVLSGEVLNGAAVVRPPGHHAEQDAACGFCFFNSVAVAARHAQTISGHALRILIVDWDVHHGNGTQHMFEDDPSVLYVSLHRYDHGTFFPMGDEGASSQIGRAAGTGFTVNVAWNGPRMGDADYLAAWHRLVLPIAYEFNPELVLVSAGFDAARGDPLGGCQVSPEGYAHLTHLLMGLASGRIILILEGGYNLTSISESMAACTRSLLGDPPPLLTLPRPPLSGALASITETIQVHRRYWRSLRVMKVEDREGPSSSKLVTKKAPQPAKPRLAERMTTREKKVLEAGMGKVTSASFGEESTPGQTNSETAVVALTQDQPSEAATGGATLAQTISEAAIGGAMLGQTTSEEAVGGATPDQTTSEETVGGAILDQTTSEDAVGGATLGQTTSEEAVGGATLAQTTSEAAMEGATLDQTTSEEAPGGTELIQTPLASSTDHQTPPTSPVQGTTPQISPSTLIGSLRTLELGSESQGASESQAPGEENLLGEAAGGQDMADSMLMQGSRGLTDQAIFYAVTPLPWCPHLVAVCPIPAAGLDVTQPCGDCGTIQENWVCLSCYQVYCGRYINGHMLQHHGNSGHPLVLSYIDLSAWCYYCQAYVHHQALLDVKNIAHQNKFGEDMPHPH

THP-1 = experiment: cells; settings: Homo sapiens, THP-1, 72 h
Description: Antiproliferative activity against human THP-1 cells assessed as inhibition of cell growth incubated for 72 hrs by MTT assay

Sequence of Histone deacetylase 5 (Q9UQL6 whole entry): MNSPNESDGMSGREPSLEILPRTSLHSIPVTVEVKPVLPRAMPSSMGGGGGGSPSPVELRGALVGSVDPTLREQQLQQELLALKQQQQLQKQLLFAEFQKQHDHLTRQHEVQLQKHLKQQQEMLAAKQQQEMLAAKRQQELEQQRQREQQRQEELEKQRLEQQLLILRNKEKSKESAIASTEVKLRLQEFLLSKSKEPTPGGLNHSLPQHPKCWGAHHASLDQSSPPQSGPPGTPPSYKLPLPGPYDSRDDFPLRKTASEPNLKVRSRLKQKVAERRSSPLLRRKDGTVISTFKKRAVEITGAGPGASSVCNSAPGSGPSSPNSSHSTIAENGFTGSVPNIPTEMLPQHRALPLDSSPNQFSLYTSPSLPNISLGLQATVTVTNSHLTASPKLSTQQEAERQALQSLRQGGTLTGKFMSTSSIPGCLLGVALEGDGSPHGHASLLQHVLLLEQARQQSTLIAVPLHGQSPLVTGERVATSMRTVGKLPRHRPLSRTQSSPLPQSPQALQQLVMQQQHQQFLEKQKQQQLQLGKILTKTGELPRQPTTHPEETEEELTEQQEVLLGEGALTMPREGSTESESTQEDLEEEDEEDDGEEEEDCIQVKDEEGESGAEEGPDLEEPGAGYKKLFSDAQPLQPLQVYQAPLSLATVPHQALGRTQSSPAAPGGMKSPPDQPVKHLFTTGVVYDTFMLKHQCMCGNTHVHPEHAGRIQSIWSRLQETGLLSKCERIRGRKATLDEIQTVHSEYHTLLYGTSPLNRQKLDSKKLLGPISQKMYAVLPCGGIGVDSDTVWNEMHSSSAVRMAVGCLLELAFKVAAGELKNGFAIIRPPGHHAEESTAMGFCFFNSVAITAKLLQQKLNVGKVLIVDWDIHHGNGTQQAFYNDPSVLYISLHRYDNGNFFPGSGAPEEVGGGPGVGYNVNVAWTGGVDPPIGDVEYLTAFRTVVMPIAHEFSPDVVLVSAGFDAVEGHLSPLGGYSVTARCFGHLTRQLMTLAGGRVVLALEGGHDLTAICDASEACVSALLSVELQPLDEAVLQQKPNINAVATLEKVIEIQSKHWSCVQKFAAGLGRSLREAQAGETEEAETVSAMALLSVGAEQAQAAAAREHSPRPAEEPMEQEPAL

- pIC50 (Histone deacetylase 5): 5.96
- pIC50 [1]: < 4.00
- pIC50 (THP-1): ~4.00
Structure (SMILES): O=C(NOCc1coc(-c2ccccc2)n1)c1ccc(-c2noc(C(F)(F)F)n2)cc1
